# Experimental data as given in patent publication US20110294728A1, “Antiviral Polypeptides” (priority 2008, published 2011).
# Where two headings read alike, the source gives them in different places. Where a SMILES comes first, the peptide text is derived from it. Bridges are numbered along the chain shown (N, C = ends). Where no end group is shown, it is not given here.
# How the values were obtained:
# HIV-1 RT = molecular target: T1, HIV-1 RT (Human immunodeficiency virus type 1 group M subtype B, UniProt P03366); assay: biochemical
# T1 construct: The heterodimeric p66/p51 RT was eluted with an imidazole gradient; p66 and p51 derived from p66 by proteolytic cleavage of the C-terminal RNAse H domain; made in house; host or cells: E. coli (M15 for the His-tagged subunits)
# Experimental: RNA-dependent-DNA RT-polymerase activity was measured in a standard reaction assay using poly(rA)-(dT)15 as template/primer as described in Restle et al. (1990). Ten microliters of reverse transcriptase (RT) at 20 nM was incubated at 37° C. for 30 min with 20 μL of reaction buffer (50 mM Tris, pH 8.0, 80 mM KCl, 6 mM MgCl2, 5 mM DTT, 0.15 μM poly(rA-dT), 15 μM dTTP, 0.3 μCi 3H-dTTP). For peptide evaluation, HIV-1 RT was incubated with increasing concentrations of peptide inhibitors for […], and polymerase reaction was initiated by adding reaction buffer. Reactions were stopped by precipitation of nucleic acids with 5 ml of 20% trichloroacetic acid (TCA) solution for 2 h on ice, then filtered using a multiwell-sample collector (Millipore), and washed with 5% TCA solution. Filters were dried at 55° C. for 30 min and radionucleotide incorporation was determined by liquid scintillation spectrometry.
# A series of peptides have been derived from Pep-A sequence (SEQ ID NO: 28), which is derived from HIV-1 reverse transcriptase. First, P1 peptide (SEQ ID NO: 1) was obtained by removing the N-terminal arginine of Pep-A. Then, additional peptides were generated by performing an alanine scan on P1. P1-derived peptides were evaluated using a standard polymerase RT assay. Reported data correspond to the mean of three separate experiments.
# HIV-1-LAI strain = conditions: for IC50, block of viral proliferation (in words): peptide associated with Pep-1
# Experimental: The anti-HIV activities of the peptides were assayed according to the methods described in Roisin et al. (2004). Phytohemagglutinin-P(PHA-P)-activated peripheral blood mononuclear cells (PBMC) treated by increasing concentrations of peptide (from 100 to 0.1 nM), one hour later, were infected with hundred 50% tissue culture infectious doses (TCID50) per 100,000 cells of the HIV-1-LAI strain (Barre-Sinoussi et al., 1983). This virus was amplified in vitro on PHA-P-activated PBMC. Viral stock was titrated using PHA-P-activated PBMC, and 50% TCID50 were calculated using Kärber's formula (Kärber, 1931). Samples were maintained throughout the culture, and cell supernatants were collected at day 7 post-infection and stored at −20° C. Viral replication was measured by quantifying reverse transcriptase (RT) activity in cell culture supernatants. In parallel, cytotoxicity of the compounds was evaluated in uninfected PHA-P-activated PBMC by colorimetric 3-(4-5 dimethylthiazol-2-yl)2,5diphenyl tetrazolium bromite (MTT) assay on day 7 (as described in Mossmann, 1983). Experiments were performed in triplicate and repeated with another blood donor. Data analyses were performed using SofiMax® Pro 4.6 microcomputer software: percent of inhibition of RT activity or of cell viability were plotted vs concentration and fitted with quadratic curves; 50% effective doses (ED50) and cytotoxic doses (CD50) were calculated.
# In order to avoid any limitation due to the poor ability of peptides to cross cellular membranes, they were associated to the peptide-based nanoparticle delivery system Pep-1 (SEQ ID NO: 29), at a 1/10 molar ratio.
# HIV-1 integrase [1] = molecular target: T2, HIV-1 integrase (Human immunodeficiency virus type 1 group M subtype B, UniProt P04585); assay: biochemical; format: binding
# T2 construct: Integrase is a 32 kDA viral protein that is biologically active under a multimeric form
# Experimental: Fluorescein-labeled peptides (40 nM) were mixed with varying concentrations of integrase in 20 mM Tris pH 7.2, 50 mM NaCl, 10 mM MgCl2, and the r values were recorded.
# Effect of the different peptides on the integrase (IN) activity, DNA binding and IN/DNA dissociation were evaluated as described in Example III.1 above, using fluorescence polarization and anisotropy measurements. Binding constant of the peptide for IN was determined by steady state fluorescence and anisotropy.
# HIV-1 integrase [2] = molecular target: T2, HIV-1 integrase; assay: biochemical
# Experimental: (§1) The simultaneous measurement of integrase-DNA interaction and subsequent 3′-processing activity by steady-state fluorescence anisotropy was performed as described in Guiot et al. (2006). […] After the initial DNA-binding step (performed at 25° C.), the 3′-processing activity was measured at 37° C. by fixed-time experiments: The reaction was stopped at varying times by adding SDS (0.25% final) which disrupts all IN-DNA complexes in the sample. The IN-mediated cleavage of the terminal GT dinucleotide (labeled by fluorescein on the 3′-end) leads to a significant decrease of r as compared to the r value corresponding to the fluorescein-labeled unprocessed DNA substrate. The fraction of released dinucleotide is calculated by using Eq. (1): […]
# wild type HIV 1 virus = assay: HIV propagation in Hu-PBL-SCID mice, wild type virus; format: in vivo, Hu-PBL-SCID transgenic mice; conditions: 20 mg/kg; peptides formulated with CADY-2c/CADY-1S1; HIV-1 DNA copies in splenocyte extracts
# Experimental: (§2) The potency of the peptides p27 (SEQ ID NO: 25) and p16 (SEQ ID NO: 19) was assessed in vivo following intravenous challenge of Hu-PBL-SCID transgenic mice (in which human (hu) peripheral blood leukocytes (PBLs) from healthy Epstein-Barr virus (EBV)-seropositive donors are injected into severe combined immunodeficiency (SCID) mice; Mosier et al., 1988). The mice (6 to 8 week-old male mice, 5 animals per group) were infected with wild type HIV 1 virus or efavirenz-resistance HIV strain harbouring K103N and N341V mutations on reverse transcriptase. Infected mice were treated with peptides formulated with the peptide vector CADY-2c (see above) in water at a ratio 1/20, and then particles were coated with 3% of CADY-1S1 (see above), as described in International Application WO 2007/069090. Particles were injected intravenously (100 μl) every 2 days for 1 week, then HIV-1 copy were quantified by quantitative PCR. Efavirenz (a non-nucleoside reverse transcriptase inhibitor; EFZ) was used a positive drug control.
# [3] = tested on: efavirenz-resistance HIV strain harbouring K103N and N341V mutations on reverse transcriptase; format: in vivo, Hu-PBL-SCID transgenic mice; conditions: EFZ resistance strain; 20 mg/kg/day; peptides formulated with CADY-2c/CADY-1S1
# Experimental: as §2
# IN/DNA complexes [4] = molecular target: T3, IN/DNA complexes (Human immunodeficiency virus type 1 group M subtype B, UniProt P04585); assay: DNA-binding of integrase, fluorescence anisotropy; format: biochemical, HIV-1
# Experimental: as §1
# IN/DNA complexes [5] = molecular target: T3, IN/DNA complexes; assay: Dissociation of pre-formed IN-DNA substrate complexes; format: biochemical, HIV-1
# Experimental: For dissociation experiments, IN-DNA substrate complexes were pre-formed at 25° C. before addition of peptides. The peptide-mediated dissociation of complexes was then studied at the same temperature by measuring the decrease in the r value as a function of time.
# IN/LEDGF complex = IN/LEDGF complex (Human immunodeficiency virus type 1 group M subtype B, UniProt P04585); assay: Dissociation of IN/LEDGF complex (AlphaScreen, immunoprecipitation); format: biochemical
# Experimental: Dissociation of IN/LEDGF complex was measured by fluorescence resonance energy transfer (AlphaScreen® technology) and immunoprecipitation experiments: • Amplified Luminescent Proximity Homogeneous Assay (ALPHA): when the proteins (IN and LEDGF), linked to acceptor and donor beads, interact together (i.e., are into close proximity), a photosignal (a high amplified signal with output in the 520-560 nm range) is detected; when the proteins are not in close proximity, the reactive oxygen decays and there is no detectable signal generated; • immunoprecipitation (IP) was performed using polyclonal anti LEDGF antibodies (purchased from Santa Cruz Biotechnology, USA) and polyclonal HA antibodies (purchased from Eurogentec, Belgium). Cell line expression HA-tagged integrase was using for the experiment in the presence of increasing concentrations of peptide inhibitors.
# [6] = read-out: EC50 HIV-1 lai, Table 10
compound,measurement,setting,value
CC(C)C[C@@H]1NC(=O)[C@H](Cc2c[nH]c3ccccc23)NC(=O)[C@H](CCCCN)NC(=O)[C@H]([C@@H](C)O)NC(=O)CNC(=O)[C@@H](N)CSSC[C@@H](C(=O)O)NC(=O)[C@H](CC(C)C)NC(=O)[C@@H]2CCCN2C(=O)[C@H](Cc2c[nH]c3ccccc23)NC(=O)[C@H](C(C)C)NC(=O)[C@H](CCC(=O)O)NC(=O)[C@H]([C@@H](C)O)NC1=O [Peptide P16C1] (H-CGTKWLTEVWPLC-OH; disulfide 1-13),Ki,HIV-1 RT,32.1 µM
same,EC50,HIV-1-LAI strain; [6],0.0025 µM
same,Kd,HIV-1 integrase [1],0.09 µM
same,Ki,HIV-1 integrase [2],4.3 µM
GTKALTEVIALTEEAE [Peptide P11],Ki,HIV-1 RT,7 µM
same,"IC50, block of viral proliferation (in words)",HIV-1-LAI strain,low μM range
"O=C1Nc2ccc(Cl)cc2[C@@](C#CC2CC2)(C(F)(F)F)O1 [Efavirenz, reference compound]",HIV propagation in vivo (in words),wild type HIV 1 virus,block HIV propagation in vivo
same,reduction of viral propagation,[3],no effect
GTKWLTEWIPL [Peptide P24],Ki,HIV-1 RT,0.7 ± 0.05 µM
same,EC50,"HIV-1-LAI strain; read-out: EC50, antiviral activity, peptide complexed with Pep-1",0.0023 µM
same,Kd,HIV-1 integrase [1],0.35 µM
same,EC50,HIV-1 integrase [2],33 µM
same,EC50,IN/DNA complexes [4],35 µM
same,EC50,IN/DNA complexes [5],21 µM
same,EC50,IN/LEDGF complex,13 µM
KWLTEWIPLTAEAE [Peptide P26],Ki,HIV-1 RT,1.8 ± 0.7 µM
same,reduction of efficiency (higher Ki) relative to PAW,HIV-1 RT; relative to PAW,2.5 fold
same,Kd,HIV-1 integrase [1],0.32 µM
same,EC50,HIV-1 integrase [2],28 µM
same,EC50,IN/DNA complexes [4],54 µM
same,EC50,IN/DNA complexes [5],67 µM
same,EC50,IN/LEDGF complex,> 50 µM
CC[C@H](C)[C@@H]1NC(=O)[C@H](Cc2c[nH]c3ccccc23)NC(=O)[C@H](CCC(=O)O)NC(=O)[C@H]([C@@H](C)O)NC(=O)[C@H](CC(C)C)NC(=O)[C@H](Cc2c[nH]c3ccccc23)NC(=O)[C@H](CCCCN)NC(=O)[C@H]([C@@H](C)O)NC(=O)CNC(=O)[C@@H](N)CSSC[C@@H](C(=O)O)NC(=O)[C@H](CCC(=O)O)NC(=O)[C@H](C)NC(=O)[C@H]([C@@H](C)O)NC(=O)[C@H](CC(C)C)NC(=O)[C@@H]2CCCN2C1=O [Peptide P27C1] (H-CGTKWLTEWIPLTAEC-OH; disulfide 1-16),Ki,HIV-1 RT,0.042 µM
same,EC50,HIV-1-LAI strain; [6],0.00017 µM
same,Kd,HIV-1 integrase [1],> 100 µM
same,Ki,HIV-1 integrase [2],> 100 µM
GTKAATEVIPLTEEAE [Peptide P6],Ki,HIV-1 RT,5.7 µM
same,"IC50, block of viral proliferation (in words)",HIV-1-LAI strain,low μM range
CC[C@H](C)[C@H](NC(=O)[C@@H](NC(=O)[C@H](CCC(=O)O)NC(=O)[C@@H](NC(=O)[C@H](CC(C)C)NC(=O)[C@H](C)NC(=O)[C@H](CCCCN)NC(=O)[C@@H](NC(=O)CN)[C@@H](C)O)[C@@H](C)O)C(C)C)C(=O)N1CCC[C@H]1C(=O)N[C@@H](CC(C)C)C(=O)N[C@H](C(=O)N[C@@H](CCC(=O)O)C(=O)N[C@@H](CCC(=O)O)C(=O)N[C@@H](C)C(=O)N[C@@H](CCC(=O)O)C(=O)O)[C@@H](C)O [Peptide P1],Ki,HIV-1 RT,7.5 µM
same,increase in potency to inhibit RT polymerase over Pep-A,HIV-1 RT; relative to Pep-A,5 fold
same,"IC50, block of viral proliferation (in words)",HIV-1-LAI strain,low μM range
CC[C@H](C)[C@@H]1NC(=O)[C@H](Cc2c[nH]c3ccccc23)NC(=O)[C@H](CCC(=O)O)NC(=O)[C@H]([C@@H](C)O)NC(=O)[C@H](CC(C)C)NC(=O)[C@H](Cc2c[nH]c3ccccc23)NC(=O)[C@H](CCCCN)NC(=O)[C@H]([C@@H](C)O)NC(=O)CNC(=O)[C@@H](N)CSSC[C@@H](C(=O)O)NC(=O)[C@H](CCC(=O)O)NC(=O)[C@H](C)NC(=O)[C@H](CCC(=O)O)NC(=O)[C@H](C)NC(=O)[C@H]([C@@H](C)O)NC(=O)[C@H](CC(C)C)NC(=O)[C@@H]2CCCN2C1=O [PAW-C1] (H-CGTKWLTEWIPLTAEAEC-OH; disulfide 1-18),Ki,HIV-1 RT,0.2 µM
same,EC50,HIV-1-LAI strain; [6],0.0012 µM
same,Kd,HIV-1 integrase [1],0.29 µM
same,Ki,HIV-1 integrase [2],21 µM
"CC[C@H](C)[C@H](NC(=O)[C@@H](NC(=O)[C@H](CCC(=O)O)NC(=O)[C@@H](NC(=O)[C@H](CC(C)C)NC(=O)[C@H](C)NC(=O)[C@H](CCCCN)NC(=O)[C@@H](NC(=O)CNC(=O)[C@@H](N)CCCNC(=N)N)[C@@H](C)O)[C@@H](C)O)C(C)C)C(=O)N1CCC[C@H]1C(=O)N[C@@H](CC(C)C)C(=O)N[C@H](C(=O)N[C@@H](CCC(=O)O)C(=O)N[C@@H](CCC(=O)O)C(=O)N[C@@H](C)C(=O)N[C@@H](CCC(=O)O)C(=O)O)[C@@H](C)O [Pep-A, reference compound]",Ki,HIV-1 RT,35 µM
same,antiviral activity (in words),HIV-1-LAI strain; associated to Pep-1,no antiviral activity
GTKALTEVAPLTEEAE [Peptide P10],Ki,HIV-1 RT,7.3 µM
same,"IC50, block of viral proliferation (in words)",HIV-1-LAI strain,low μM range
